Laboratory results reported in paper PMC9551036, “A selective and orally bioavailable VHL-recruiting PROTAC achieves SMARCA2 degradation in vivo” (Nature Communications, 2022).
“And” between values parts separate entries of the source, which are not always exact repeats. Equal values may be shown once. “Also recorded” adds a separate entry of the source.

Target: SMARCA2 (Homo sapiens, UniProt P51531)
Assay: SMARCA2 IHC in A549 xenograft tumours
Assay type: in vivo, mouse
Design: from tissue; host or cells: subcutaneous NCI-H1568 or A549 xenograft tumours in BomTac:NMRI-Foxn1nu mice
Protocol: To establish subcutaneous tumours, mice were injected with 5 × 10^6 NCI-H1568 in PBS with 5% FCS or with 1 × 10^7 A549 cells in PBS with 5% FCS. Tumour diameters were measured with a caliper three times a week. The volume of each tumour (in mm^3) was calculated according to the formula [tumour volume = length × diameter^2 × π/6]. To monitor side effects of treatment, mice were inspected daily for abnormalities and body weight was determined daily after the start of treatment. Animals were sacrificed when the tumours reached a size of 1500 mm^3. Mice were randomised into treatment groups when the average tumour size reached ~210–220 mm^3. Group sizes were calculated individually for each tumour model based on tumour growth during model establishment experiments. A power analysis was performed using a sample size calculator (https://www.stat.ubc.ca/~rollin/stats/ssize/n2.html). For both models used in the study, 10 mice per group were used for each experiment. All administrations were dosed with 10 ml/kg (s.c. and oral). Control mice were dosed subcutaneously with 10% HP-β-CD in 50% Ringer solution and orally with 15% HP-β-CD, that means the control mouse treatment was corresponding to the solvent of the compounds. Compound 6 was dosed subcutaneously either in a d1-4 q3d, d6-8 q2d, d11-13 q2d treatment (Treatment 1) or a q3 or 4d treatment (Treatment 2).
Xenograft samples were fixed in 10% formaldehyde for 24 h and later moved to ethanol and embedded in paraffin. 2 µm-thick sections were cut using a microtome, then placed on glass slides ([…], silan printer slides PR-S:001), and subsequently dewaxed. […] All slides were reviewed and evaluated for quality by a board-certified MD specialist in Anatomic Pathology (PC). […] A positivity threshold for DAB OD was determined by normalisation with respect to the DAB OD as calculated from bona fide negative tissue (e.g. murine stroma as background). The average, background-normalised DAB OD of tumour cell nuclei was used to quantitate SMARCA2 expression in each xenograft sample.

SMARCA2, sequence (P51531 whole entry): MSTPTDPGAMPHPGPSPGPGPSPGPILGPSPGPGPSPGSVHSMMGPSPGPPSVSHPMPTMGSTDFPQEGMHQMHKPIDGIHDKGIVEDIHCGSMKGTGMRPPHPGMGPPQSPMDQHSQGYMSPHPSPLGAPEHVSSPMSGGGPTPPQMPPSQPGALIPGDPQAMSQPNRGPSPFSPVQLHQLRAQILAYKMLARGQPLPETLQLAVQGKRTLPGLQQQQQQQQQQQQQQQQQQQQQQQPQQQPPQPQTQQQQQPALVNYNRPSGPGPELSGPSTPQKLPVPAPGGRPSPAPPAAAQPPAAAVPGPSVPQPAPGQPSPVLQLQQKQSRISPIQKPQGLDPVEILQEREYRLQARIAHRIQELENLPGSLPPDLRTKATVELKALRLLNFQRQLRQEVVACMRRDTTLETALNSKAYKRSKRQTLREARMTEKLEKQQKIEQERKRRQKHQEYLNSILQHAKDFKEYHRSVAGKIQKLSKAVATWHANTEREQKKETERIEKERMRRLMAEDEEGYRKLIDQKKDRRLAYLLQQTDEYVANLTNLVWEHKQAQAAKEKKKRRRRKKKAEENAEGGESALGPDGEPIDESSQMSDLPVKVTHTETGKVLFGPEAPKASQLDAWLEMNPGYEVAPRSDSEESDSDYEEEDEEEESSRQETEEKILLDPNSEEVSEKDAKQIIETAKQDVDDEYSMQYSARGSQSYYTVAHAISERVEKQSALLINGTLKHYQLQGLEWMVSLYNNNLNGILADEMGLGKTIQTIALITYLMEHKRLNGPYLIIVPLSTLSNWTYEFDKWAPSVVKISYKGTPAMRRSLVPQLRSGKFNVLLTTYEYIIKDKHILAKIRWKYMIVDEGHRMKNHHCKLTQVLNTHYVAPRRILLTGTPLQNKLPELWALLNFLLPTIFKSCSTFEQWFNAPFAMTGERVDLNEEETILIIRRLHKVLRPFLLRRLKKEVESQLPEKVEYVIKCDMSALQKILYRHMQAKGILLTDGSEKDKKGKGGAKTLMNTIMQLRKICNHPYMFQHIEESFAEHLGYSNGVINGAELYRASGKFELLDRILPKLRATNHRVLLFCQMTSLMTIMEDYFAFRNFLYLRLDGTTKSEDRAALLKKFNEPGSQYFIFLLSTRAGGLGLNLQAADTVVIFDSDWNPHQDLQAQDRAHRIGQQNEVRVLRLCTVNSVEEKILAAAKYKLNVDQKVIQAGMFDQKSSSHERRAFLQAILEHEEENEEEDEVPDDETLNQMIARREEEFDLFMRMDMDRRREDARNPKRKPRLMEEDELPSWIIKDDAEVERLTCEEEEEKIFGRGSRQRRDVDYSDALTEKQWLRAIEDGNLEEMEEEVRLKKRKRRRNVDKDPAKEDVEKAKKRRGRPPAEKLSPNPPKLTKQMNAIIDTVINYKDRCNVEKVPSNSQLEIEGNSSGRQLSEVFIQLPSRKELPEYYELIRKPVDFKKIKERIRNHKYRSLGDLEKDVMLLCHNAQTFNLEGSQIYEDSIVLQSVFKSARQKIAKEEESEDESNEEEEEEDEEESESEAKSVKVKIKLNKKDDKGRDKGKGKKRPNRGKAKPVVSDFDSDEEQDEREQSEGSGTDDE

Cc1ncsc1-c1ccc(C(CCC(C)CCN2CCC(c3ccc4c(c3)n(C3CCCC3)c3nc(=O)c5c(Br)cccc5n43)CC2)NC(=O)C2CC(O)CN2C(=O)C(NC(=O)C2(F)CC2)C(C)(C)C)cc1 (stereo not drawn) [ACBI2]
SMARCA2 staining in tumours at the end of the efficacy study (A549 xenograft, 80 mg/kg p.o. once daily, 80 mg/kg): reduced to background levels; also recorded: decreased to background levels | SMARCA2 (OD, normalised) (Fig4h, 80 mg/kg po qd, background OD 0.05910 subtracted): 0.00000 | Avg Stain 1 Nuclear OD (Fig4h, 80 mg/kg po qd, per animal): 0.04104 and 0.05262 and 0.08316 and 0.0589 and 0.03791 and 0.04411
